Measurements: ChEMBL document CHEMBL1128809 (Bioorg Med Chem Lett, 1995)

Target: Protein kinase C eta type (Homo sapiens, UniProt P24723)
Assay: Inhibition of Protein kinase C eta
Settings: not given

Chain of Protein kinase C eta type (P24723 whole entry): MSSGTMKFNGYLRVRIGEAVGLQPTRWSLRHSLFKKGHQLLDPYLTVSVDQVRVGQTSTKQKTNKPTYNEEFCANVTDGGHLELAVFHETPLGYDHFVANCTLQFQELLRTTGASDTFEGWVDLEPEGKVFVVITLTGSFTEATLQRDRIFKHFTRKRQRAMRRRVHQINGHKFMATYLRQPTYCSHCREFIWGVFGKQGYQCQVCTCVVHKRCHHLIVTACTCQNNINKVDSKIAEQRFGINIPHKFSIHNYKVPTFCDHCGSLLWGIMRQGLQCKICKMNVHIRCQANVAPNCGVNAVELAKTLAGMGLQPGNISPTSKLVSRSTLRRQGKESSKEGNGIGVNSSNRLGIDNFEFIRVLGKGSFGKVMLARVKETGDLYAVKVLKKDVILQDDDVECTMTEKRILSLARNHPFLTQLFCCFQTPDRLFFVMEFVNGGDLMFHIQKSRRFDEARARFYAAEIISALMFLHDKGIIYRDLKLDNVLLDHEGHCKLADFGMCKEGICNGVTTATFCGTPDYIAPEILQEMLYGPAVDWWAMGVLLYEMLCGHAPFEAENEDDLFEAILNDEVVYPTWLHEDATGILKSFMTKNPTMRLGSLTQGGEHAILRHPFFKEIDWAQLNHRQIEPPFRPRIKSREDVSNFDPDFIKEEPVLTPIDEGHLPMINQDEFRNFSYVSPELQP

Structure (SMILES)	IC50 [nM]
O=C(N[C@@H]1CNC[C@H]1NC(=O)c1cc(O)c(C(=O)c2c(O)cccc2C(=O)O)c(O)c1)c1ccc(O)cc1	3
O=C(N[C@@H]1CCCNC[C@H]1NC(=O)c1ccc(O)cc1)c1cc(O)c(C(=O)c2c(O)cccc2C(=O)O)c(O)c1	50
O=C(N[C@@H]1CCC[C@H]1COC(=O)c1cc(O)c(C(=O)c2c(O)cccc2C(=O)O)c(O)c1)c1ccc(O)cc1	20
O=C(N[C@@H]1CNCCC[C@H]1OC(=O)c1cc(O)c(C(=O)c2c(O)cccc2C(=O)O)c(O)c1)c1ccc(O)cc1 (racemic) [BALANOL]	20
O=C(N[C@@H]1CNCCC[C@H]1OC(=O)c1cc(O)c(C(=O)c2c(O)cccc2C(=O)O)c(O)c1)c1ccc(O)cc1 [BALANOL]	3

Target: Protein kinase C alpha type (Homo sapiens, UniProt P17252)
Assay: Inhibition of Protein kinase C alpha
Settings: not given

Structure (SMILES)	IC50 [nM]
O=C(N[C@@H]1CNC[C@H]1NC(=O)c1cc(O)c(C(=O)c2c(O)cccc2C(=O)O)c(O)c1)c1ccc(O)cc1	920
O=C(N[C@@H]1CCCNC[C@H]1NC(=O)c1ccc(O)cc1)c1cc(O)c(C(=O)c2c(O)cccc2C(=O)O)c(O)c1	3200
O=C(N[C@@H]1CCC[C@H]1COC(=O)c1cc(O)c(C(=O)c2c(O)cccc2C(=O)O)c(O)c1)c1ccc(O)cc1	40
O=C(N[C@@H]1CNCCC[C@H]1OC(=O)c1cc(O)c(C(=O)c2c(O)cccc2C(=O)O)c(O)c1)c1ccc(O)cc1 (racemic) [BALANOL]	67
O=C(N[C@@H]1CNCCC[C@H]1OC(=O)c1cc(O)c(C(=O)c2c(O)cccc2C(=O)O)c(O)c1)c1ccc(O)cc1 [BALANOL]	30

Target: T1, Protein kinase C beta type (Homo sapiens, UniProt P05771)
T1 sequence (P05771 whole entry): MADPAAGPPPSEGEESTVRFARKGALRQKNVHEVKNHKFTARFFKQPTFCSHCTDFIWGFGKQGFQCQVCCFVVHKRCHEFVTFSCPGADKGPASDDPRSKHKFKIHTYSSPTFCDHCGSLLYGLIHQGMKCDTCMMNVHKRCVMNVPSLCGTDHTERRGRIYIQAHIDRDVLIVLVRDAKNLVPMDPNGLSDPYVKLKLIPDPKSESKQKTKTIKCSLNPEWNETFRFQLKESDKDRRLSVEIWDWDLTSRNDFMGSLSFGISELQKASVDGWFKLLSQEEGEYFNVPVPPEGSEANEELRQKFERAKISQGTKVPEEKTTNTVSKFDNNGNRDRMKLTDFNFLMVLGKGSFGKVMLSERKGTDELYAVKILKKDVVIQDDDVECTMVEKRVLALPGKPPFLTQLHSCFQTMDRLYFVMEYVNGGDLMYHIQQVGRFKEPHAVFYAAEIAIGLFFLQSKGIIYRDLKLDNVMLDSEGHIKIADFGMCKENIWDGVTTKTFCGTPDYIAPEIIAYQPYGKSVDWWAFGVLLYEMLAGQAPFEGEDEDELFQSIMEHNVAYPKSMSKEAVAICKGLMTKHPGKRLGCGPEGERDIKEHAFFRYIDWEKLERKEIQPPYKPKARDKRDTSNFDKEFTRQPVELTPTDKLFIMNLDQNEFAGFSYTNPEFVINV
Assay: Inhibition of Protein kinase C beta 2
Settings: not given

Structure (SMILES)	IC50 [nM]
O=C(N[C@@H]1CNC[C@H]1NC(=O)c1cc(O)c(C(=O)c2c(O)cccc2C(=O)O)c(O)c1)c1ccc(O)cc1	330
O=C(N[C@@H]1CCCNC[C@H]1NC(=O)c1ccc(O)cc1)c1cc(O)c(C(=O)c2c(O)cccc2C(=O)O)c(O)c1	1200
O=C(N[C@@H]1CCC[C@H]1COC(=O)c1cc(O)c(C(=O)c2c(O)cccc2C(=O)O)c(O)c1)c1ccc(O)cc1	30
O=C(N[C@@H]1CNCCC[C@H]1OC(=O)c1cc(O)c(C(=O)c2c(O)cccc2C(=O)O)c(O)c1)c1ccc(O)cc1 (racemic) [BALANOL]	30
O=C(N[C@@H]1CNCCC[C@H]1OC(=O)c1cc(O)c(C(=O)c2c(O)cccc2C(=O)O)c(O)c1)c1ccc(O)cc1 [BALANOL]	10

Target: Protein kinase C gamma type (Homo sapiens, UniProt P05129)
Assay: Inhibition of Protein kinase C gamma
Settings: not given

Structure (SMILES)	IC50 [nM]
O=C(N[C@@H]1CNC[C@H]1NC(=O)c1cc(O)c(C(=O)c2c(O)cccc2C(=O)O)c(O)c1)c1ccc(O)cc1	330
O=C(N[C@@H]1CCCNC[C@H]1NC(=O)c1ccc(O)cc1)c1cc(O)c(C(=O)c2c(O)cccc2C(=O)O)c(O)c1	420
O=C(N[C@@H]1CNC[C@H]1OC(=O)c1cc(O)c(C(=O)c2c(O)cccc2C(=O)O)c(O)c1)c1ccc(O)cc1	12
O=C(N[C@@H]1CCC[C@H]1COC(=O)c1cc(O)c(C(=O)c2c(O)cccc2C(=O)O)c(O)c1)c1ccc(O)cc1	300
O=C(N[C@@H]1CNCCC[C@H]1OC(=O)c1cc(O)c(C(=O)c2c(O)cccc2C(=O)O)c(O)c1)c1ccc(O)cc1 (racemic) [BALANOL]	30
O=C(N[C@@H]1CNCCC[C@H]1OC(=O)c1cc(O)c(C(=O)c2c(O)cccc2C(=O)O)c(O)c1)c1ccc(O)cc1 [BALANOL]	10

Target: T1, Protein kinase C beta type
Assay: Inhibition of Protein kinase C beta 1
Settings: not given

Structure (SMILES)	IC50 [nM]
O=C(N[C@@H]1CNC[C@H]1NC(=O)c1cc(O)c(C(=O)c2c(O)cccc2C(=O)O)c(O)c1)c1ccc(O)cc1	220
O=C(N[C@@H]1CCCNC[C@H]1NC(=O)c1ccc(O)cc1)c1cc(O)c(C(=O)c2c(O)cccc2C(=O)O)c(O)c1	630
O=C(N[C@@H]1CNC[C@H]1OC(=O)c1cc(O)c(C(=O)c2c(O)cccc2C(=O)O)c(O)c1)c1ccc(O)cc1	10
O=C(N[C@@H]1CCC[C@H]1COC(=O)c1cc(O)c(C(=O)c2c(O)cccc2C(=O)O)c(O)c1)c1ccc(O)cc1	40
O=C(N[C@@H]1CNCCC[C@H]1OC(=O)c1cc(O)c(C(=O)c2c(O)cccc2C(=O)O)c(O)c1)c1ccc(O)cc1 (racemic) [BALANOL]	30
O=C(N[C@@H]1CNCCC[C@H]1OC(=O)c1cc(O)c(C(=O)c2c(O)cccc2C(=O)O)c(O)c1)c1ccc(O)cc1 [BALANOL]	10

Target: T2, Protein kinase C zeta type (Homo sapiens, UniProt Q05513)
T2 sequence (Q05513 whole entry): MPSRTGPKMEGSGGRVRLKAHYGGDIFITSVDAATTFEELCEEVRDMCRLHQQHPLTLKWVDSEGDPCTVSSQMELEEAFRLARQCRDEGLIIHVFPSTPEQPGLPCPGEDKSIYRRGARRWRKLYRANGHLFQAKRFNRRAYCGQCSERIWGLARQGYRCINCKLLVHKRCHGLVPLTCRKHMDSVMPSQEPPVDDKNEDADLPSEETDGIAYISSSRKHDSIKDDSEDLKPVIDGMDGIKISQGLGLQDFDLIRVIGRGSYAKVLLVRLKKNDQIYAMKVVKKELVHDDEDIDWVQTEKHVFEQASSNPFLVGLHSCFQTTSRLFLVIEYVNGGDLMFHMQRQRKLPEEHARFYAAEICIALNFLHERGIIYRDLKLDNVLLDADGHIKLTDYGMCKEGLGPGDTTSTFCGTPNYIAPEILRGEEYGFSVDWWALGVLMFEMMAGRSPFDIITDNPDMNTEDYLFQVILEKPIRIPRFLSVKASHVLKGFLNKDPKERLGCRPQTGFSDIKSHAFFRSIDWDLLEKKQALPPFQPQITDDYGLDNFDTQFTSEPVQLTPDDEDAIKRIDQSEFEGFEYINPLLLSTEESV
Assay: Inhibition of Protein kinase C zeta
Settings: not given

Structure (SMILES)	IC50 [nM]
O=C(N[C@@H]1CNC[C@H]1NC(=O)c1cc(O)c(C(=O)c2c(O)cccc2C(=O)O)c(O)c1)c1ccc(O)cc1	9600
O=C(N[C@@H]1CCCNC[C@H]1NC(=O)c1ccc(O)cc1)c1cc(O)c(C(=O)c2c(O)cccc2C(=O)O)c(O)c1	> 50000
O=C(N[C@@H]1CNC[C@H]1OC(=O)c1cc(O)c(C(=O)c2c(O)cccc2C(=O)O)c(O)c1)c1ccc(O)cc1	6800
O=C(N[C@@H]1CCC[C@H]1COC(=O)c1cc(O)c(C(=O)c2c(O)cccc2C(=O)O)c(O)c1)c1ccc(O)cc1	> 50000
O=C(N[C@@H]1CNCCC[C@H]1OC(=O)c1cc(O)c(C(=O)c2c(O)cccc2C(=O)O)c(O)c1)c1ccc(O)cc1 [BALANOL]	5900

Target: Protein kinase C delta type (Homo sapiens, UniProt Q05655)
Sequence (Q05655 whole entry): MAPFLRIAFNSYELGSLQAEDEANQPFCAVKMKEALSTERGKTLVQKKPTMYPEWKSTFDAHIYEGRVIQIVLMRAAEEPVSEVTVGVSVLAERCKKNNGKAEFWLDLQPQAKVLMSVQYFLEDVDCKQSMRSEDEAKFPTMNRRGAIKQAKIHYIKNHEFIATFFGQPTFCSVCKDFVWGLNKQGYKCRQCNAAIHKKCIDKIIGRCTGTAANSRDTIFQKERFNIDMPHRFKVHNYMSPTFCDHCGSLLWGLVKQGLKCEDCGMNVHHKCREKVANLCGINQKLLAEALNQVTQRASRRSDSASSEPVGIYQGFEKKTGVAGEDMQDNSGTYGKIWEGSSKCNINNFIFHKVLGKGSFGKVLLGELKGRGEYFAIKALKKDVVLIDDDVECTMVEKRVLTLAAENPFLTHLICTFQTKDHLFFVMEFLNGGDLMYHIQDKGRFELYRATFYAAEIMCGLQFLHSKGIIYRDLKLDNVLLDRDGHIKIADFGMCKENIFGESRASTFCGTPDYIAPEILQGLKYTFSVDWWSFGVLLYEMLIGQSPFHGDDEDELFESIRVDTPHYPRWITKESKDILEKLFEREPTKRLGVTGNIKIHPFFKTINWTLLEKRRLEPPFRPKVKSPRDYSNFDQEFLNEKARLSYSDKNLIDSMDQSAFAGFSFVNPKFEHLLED
Assay: Inhibition of Protein kinase C delta
Settings: not given

Structure (SMILES)	IC50 [nM]
O=C(N[C@@H]1CNC[C@H]1NC(=O)c1cc(O)c(C(=O)c2c(O)cccc2C(=O)O)c(O)c1)c1ccc(O)cc1	12
O=C(N[C@@H]1CCCNC[C@H]1NC(=O)c1ccc(O)cc1)c1cc(O)c(C(=O)c2c(O)cccc2C(=O)O)c(O)c1	220
O=C(N[C@@H]1CCC[C@H]1COC(=O)c1cc(O)c(C(=O)c2c(O)cccc2C(=O)O)c(O)c1)c1ccc(O)cc1	20
O=C(N[C@@H]1CNCCC[C@H]1OC(=O)c1cc(O)c(C(=O)c2c(O)cccc2C(=O)O)c(O)c1)c1ccc(O)cc1 (racemic) [BALANOL]	23
O=C(N[C@@H]1CNCCC[C@H]1OC(=O)c1cc(O)c(C(=O)c2c(O)cccc2C(=O)O)c(O)c1)c1ccc(O)cc1 [BALANOL]	16

Target: T3, Protein kinase C epsilon type (Homo sapiens, UniProt Q02156)
T3 sequence (Q02156 whole entry): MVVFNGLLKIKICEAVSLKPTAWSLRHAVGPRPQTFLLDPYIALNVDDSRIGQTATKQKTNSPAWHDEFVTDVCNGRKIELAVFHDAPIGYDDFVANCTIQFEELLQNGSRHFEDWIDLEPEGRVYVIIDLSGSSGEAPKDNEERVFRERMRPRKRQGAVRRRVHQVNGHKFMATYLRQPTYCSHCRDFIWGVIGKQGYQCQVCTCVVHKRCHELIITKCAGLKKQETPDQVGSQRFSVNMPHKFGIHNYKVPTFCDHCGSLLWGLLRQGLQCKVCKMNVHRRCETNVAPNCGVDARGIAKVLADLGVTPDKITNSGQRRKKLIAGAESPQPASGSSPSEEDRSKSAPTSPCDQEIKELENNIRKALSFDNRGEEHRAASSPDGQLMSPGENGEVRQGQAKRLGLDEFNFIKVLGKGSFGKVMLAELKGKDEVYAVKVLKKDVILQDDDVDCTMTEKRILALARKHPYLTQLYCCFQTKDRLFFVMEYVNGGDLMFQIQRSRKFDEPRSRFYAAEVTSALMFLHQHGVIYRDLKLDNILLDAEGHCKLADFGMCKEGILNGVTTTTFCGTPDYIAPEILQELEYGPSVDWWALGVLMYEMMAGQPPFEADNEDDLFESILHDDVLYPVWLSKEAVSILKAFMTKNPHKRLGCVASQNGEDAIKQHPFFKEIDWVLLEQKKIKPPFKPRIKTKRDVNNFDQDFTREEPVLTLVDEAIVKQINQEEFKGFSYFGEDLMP
Assay: Inhibition of Protein kinase C epsilon
Settings: not given

Structure (SMILES)	IC50 [nM]
O=C(N[C@@H]1CNC[C@H]1NC(=O)c1cc(O)c(C(=O)c2c(O)cccc2C(=O)O)c(O)c1)c1ccc(O)cc1	80
O=C(N[C@@H]1CCCNC[C@H]1NC(=O)c1ccc(O)cc1)c1cc(O)c(C(=O)c2c(O)cccc2C(=O)O)c(O)c1	670
O=C(N[C@@H]1CCC[C@H]1COC(=O)c1cc(O)c(C(=O)c2c(O)cccc2C(=O)O)c(O)c1)c1ccc(O)cc1	340

Tested on: not listed separately
Assay: Stability in human plasma 2 hr after incubation expressed as percent concentration
Type: ADME, cell-free
Settings: read-out: Concentration

Structure (SMILES)	remaining at 2 h [%]
O=C(N[C@@H]1CNC[C@H]1NC(=O)c1cc(O)c(C(=O)c2c(O)cccc2C(=O)O)c(O)c1)c1ccc(O)cc1	95
O=C(N[C@@H]1CNC[C@H]1OC(=O)c1cc(O)c(C(=O)c2c(O)cccc2C(=O)O)c(O)c1)c1ccc(O)cc1	88

Tested on: not listed separately
Assay: Stability in human plasma 4 hr after incubation expressed as percent concentration
Type: ADME, cell-free
Settings: read-out: Concentration

Structure (SMILES)	remaining at 4 h [%]
O=C(N[C@@H]1CNC[C@H]1NC(=O)c1cc(O)c(C(=O)c2c(O)cccc2C(=O)O)c(O)c1)c1ccc(O)cc1	104
O=C(N[C@@H]1CNC[C@H]1OC(=O)c1cc(O)c(C(=O)c2c(O)cccc2C(=O)O)c(O)c1)c1ccc(O)cc1	103
